Consider eight compounds from patent EP1073639B1, “QUINOLINE DERIVATIVES” (Active Biotech AB, priority 1998, dated 1999).

Marks after values point to notes of the source that are not given here.

Holding throughout (assay type): in vivo
Data set [1] can be described thus: Clearance in dogs. The settings on record: higher than roquinimex.
For data set [2], the system named is female rats. In words: Teratogenic effects in the rat (embryotoxicity, external malformations). Particulars: for % malformed foetuses: rat.
Data set [3] relates to SJL/N female mice. In words: Acute experimental autoimmune encephalomyelitis (aEAE). The settings on record: for % aEAE Inhibition: mice.
Data set [4] deals with DBA/1 male mice. In words: Collagen induced arthritis (type II collagen). Particulars: dose 5 mg/kg p.o.; for Mean score day 35: day 35, arthritic score. On the procedure: Collagen induced arthritis
DBA/1 male mice between 8 to 10 weeks of age were used for the experiments. On day 0 the mice were immunized intradermally at the base of the tail with bovine type II collagen (100 µg/mouse) in Freund's complete adjuvant. The treatment was given per os daily on days 3 to 7, 10 to 14, 17 to 21, 24 to 28 and 31 to 35. Fifteen days after immunization mice were inspected for signs of arthritis. The animals were inspected three times a week. Every second or third day individual paws of the arthritic animals were scored by a scale from 0-4 (0 = no arthritis, 1 = arthritis in one of the interphalangeal, metatarsophalangeal or intercarpal joints, 2 = two arthritic joints, 3 = three arthritic joints, 4 = as in 3 but with more severe redness and swelling of the paw). The score for each paw was added to give a maximal attainable score of 16 for each mouse.

The subject of data set [5] is beagle dogs. The data set can be described thus: Beagle Pain Syndrome (BPS). The settings on record: result in words. On the procedure: Beagle Pain Syndrome (BPS)
The compounds were administrated intravenously to beagle dogs. The dosage was given for five consecutive days. The dogs were evaluated for clinical and laboratory signs of the pain syndrome, e.g., fever, increased erythrocyte sedimentation rate (ESR), […] (AP), induction of acute phase proteins and vasculitis.

Turning to `Cn1c(=O)c(C(=O)Nc2ccccc2)c(O)c2ccccc21` [A], in data set [1], the “clearance (Cl) in comparison with roquinimex” value is recorded as 800 fold.
`CCN(C(=O)c1c(O)c2c(Cl)cccc2n(C)c1=O)c1ccccc1` [Compound B, N-ethyl-N-phenyl-1,2-dihydro-4-hydroxy-5-chloro-1-methyl-2-oxo-quinoline-3-carboxamide]: the “% malformed foetuses” value in data set [2] (6 mg/kg, route s.c.) is recorded as 0^a) %; in data set [2] (30 mg/kg, route s.c.), 1^a) %. Further, the “% aEAE Inhibition” value in data set [3] (0.04 mg/kg p.o.) came out at 60%; in data set [3] (0.2 mg/kg p.o.), 74%; in data set [3] (1 mg/kg p.o.), 98%; in data set [3] (5 mg/kg p.o.) it was 96%.
In the case of `CCN(C(=O)c1c(O)c2c(OC)cccc2n(C)c1=O)c1ccccc1` [Compound C, N-ethyl-N-phenyl-1,2-dihydro-4-hydroxy-5-methoxy-1-methyl-2-oxo-quinoline-3-carboxamide], the “% aEAE Inhibition” value in data set [3] (0.04 mg/kg p.o.) is recorded as 48%; in data set [3] (0.2 mg/kg p.o.), 71%; in data set [3] (1 mg/kg p.o.), 73%; in data set [3] (5 mg/kg p.o.) it was 90%.
For `CCN(C(=O)c1c(O)c2ccccc2n(C)c1=O)c1ccccc1` [Compound F, N-ethyl-N-phenyl-1,2-dihydro-4-hydroxy-1-methyl-2-oxo-quinoline-3-carboxamide, reference compound], the “% aEAE Inhibition” value in data set [3] (5 mg/kg p.o.) is given as 63%.
Turning to `CN(C(=O)c1c(O)c2c(Cl)cccc2n(C)c1=O)c1ccccc1` [Compound G, N-methyl-N-phenyl-1,2-dihydro-4-hydroxy-5-chloro-1-methyl-2-oxo-quinoline-3-carboxamide], the “% malformed foetuses” value in data set [2] (6 mg/kg, route s.c.) is 37^a) %.
As to `CCN(C(=O)c1c(O)c2c(Br)cccc2n(C)c1=O)c1ccccc1` [D, N-ethyl-N-phenyl-1,2-dihydro-4-hydroxy-5-bromo-1-methyl-2-oxo-quinoline-3-carboxamide], in data set [4], the “Incidence (%) day 35” value was found to be 30% and the “Mean score day 35” value amounted to 0.4.
As for `CCN(C(=O)c1c(O)c2c3c(ccc2n(C)c1=O)OCO3)c1ccccc1` [E, N-ethyl-N-phenyl-1,2-dihydro-4-hydroxy-5,6-methylenedioxy-1-methyl-2-oxo-quinoline-3-carboxamide], in data set [4], the “Incidence (%) day 35” value is reported as 10% and the “Mean score day 35” value was determined as 0.1.
`CN(C(=O)c1c(O)c2ccccc2n(C)c1=O)c1ccccc1` [Roquinimex, N-methyl-N-phenyl-1,2-dihydro-4-hydroxy-1-methyl-2-oxo-quinoline-3-carboxamide, reference compound]: the “% malformed foetuses” value in data set [2] (10 mg/kg, route p.o.) was 9^b) %; in data set [2] (30 mg/kg, route p.o.), 30^b) %. Besides, the “teratogenic effect in the rat” value in data set [2] (result in words) is on record as “teratogenic”. Also, the “% aEAE Inhibition” value is on record as 35% in data set [3] (0.2 mg/kg p.o.), 40% in data set [3] (1 mg/kg p.o.) and 69% in data set [3] (5 mg/kg p.o.). Besides, the “inhibition of EAE in mice” value in data set [3] (5 mg/kg, treatment control) is 70%. Moreover, in data set [4], the “Incidence (%) day 35” value is 50%. Moreover, the “Mean score day 35” value in data set [4] was found to be 1.7. Besides, in data set [5], the “Beagle Pain Syndrome (BPS)” value is given as “induce the Beagle Pain Syndrome”.
